The record followed here is patent US12522851B2, “Method for purifying indole-3-lactic acid from Lactobacillus plantarum fermentation supernatant” (Zhejiang Gongshang University, priority 2021, dated 2026).

What all share (experiment): Oxford cup method antibacterial activity
What all share (assay type): cell-based

Test [1] concerns Salmonella enterica subsp. arizonae CMCC(B)47001. The conditions noted are these: 150 μL of 10 mg/ml in 1% acetonitrile aqueous solution, 1% indicator bacteria, read-out: Diameter of inhibition zone. As for the experimental part:
(§1) The antibacterial activity of indole-3-lactic acid obtained by purification in step III in Embodiment 2 (i.e., concentrated H4 with a purity of 99.00%) was determined by an oxford cup method. 1% (volume concentration) of indicator bacteria was added to 150 μL of 10 mg/ml indole-3-lactic acid (dissolved in 1% acetonitrile aqueous solution). […] Listeria monocytogenes LM1, Bacillus subtilis BAS2, Salmonella paratyphi B CMCC50094, Salmonella paratyphi A CMCC50093, Salmonella enterica subsp. arizonae CMCC (B) 47001 and Salmonella typhimurium CMCC50015 were purchased from National Center for Medical Culture Collections (CMCC). Escherichia coli DH5a was purchased from Sangon Biotech (Shanghai) Co., Ltd. Staphylococcus aureus ATCC25923, Pseudomonas aeruginosa ATCC47085, Salmonella enterica subsp. enterica ATCC14028 and Salmonella choleraseuis ATCC13312 were purchased from American Type Culture Collection (ATCC). Micrococcus luteus CICC 10209 was purchased from China Center of Industrial Culture Collection (CICC). Staphylococcus citreus LC5 was purchased from China Center for Type Culture Collection (CCTCC). Staphylococcus simulans, Staphylococcus warneri, Staphylococcus carnosus pCA44 and Staphylococcus carnosus pot20 were presented by Professor Eefjan Breukink of Utrecht University in the Netherlands.

The subject of another test is Bacillus subtilis BAS2. The conditions noted are these: 150 μL of 10 mg/ml in 1% acetonitrile aqueous solution, 1% indicator bacteria, read-out: Diameter of inhibition zone. As for the experimental part: as §1
The next test concerns Staphylococcus warneri. To be noted: 150 μL of 10 mg/ml in 1% acetonitrile aqueous solution, 1% indicator bacteria, read-out: Diameter of inhibition zone. As for the experimental part: as §1
Test [2] concerns Salmonella choleraseuis ATCC13312. The conditions noted are these: 150 μL of 10 mg/ml in 1% acetonitrile aqueous solution, 1% indicator bacteria, read-out: Diameter of inhibition zone. As for the experimental part:
as §1

The next test deals with Staphylococcus simulans. To be noted: 150 μL of 10 mg/ml in 1% acetonitrile aqueous solution, 1% indicator bacteria, read-out: Diameter of inhibition zone. As for the experimental part:
as §1

For test [3], the system named is Staphylococcus carnosus pot20. To be noted: 150 μL of 10 mg/ml in 1% acetonitrile aqueous solution, 1% indicator bacteria, read-out: Diameter of inhibition zone. As for the experimental part:
as §1

Test [4] relates to Staphylococcus citreus LC5. To be noted: 150 μL of 10 mg/ml in 1% acetonitrile aqueous solution, 1% indicator bacteria, read-out: Diameter of inhibition zone. As for the experimental part: as §1
The test system of test [5] is Staphylococcus aureus ATCC25923. The conditions noted are these: 150 μL of 10 mg/ml in 1% acetonitrile aqueous solution, 1% indicator bacteria, read-out: Diameter of inhibition zone. The method, then:
as §1

Test [6] relates to Staphylococcus carnosus pCA44. The conditions noted are these: PCA44, read-out: Diameter of inhibition zone. The method, then: as §1
The test system of test [7] is Salmonella enterica subsp. enterica ATCC14028. The conditions noted are these: 150 μL of 10 mg/ml in 1% acetonitrile aqueous solution, 1% indicator bacteria, read-out: Diameter of inhibition zone. The method, then:
as §1

In test [8] the test system is Salmonella paratyphi A CMCC50093. The conditions noted are these: Salmonella enterica, 150 μL of 10 mg/ml in 1% acetonitrile aqueous solution, 1% indicator bacteria, read-out: Diameter of inhibition zone. The method, then: as §1
For test [9], the system named is Micrococcus luteus CICC 10209. The conditions noted are these: CICC10209, 150 μL of 10 mg/ml in 1% acetonitrile aqueous solution, 1% indicator bacteria, read-out: Diameter of inhibition zone. The method, then:
as §1

Test [10] concerns Pseudomonas aeruginosa ATCC47085. The conditions noted are these: 150 μL of 10 mg/ml in 1% acetonitrile aqueous solution, 1% indicator bacteria, read-out: Diameter of inhibition zone. As for the experimental part: as §1
The subject of test [11] is Listeria monocytogenes LM1. The conditions noted are these: 150 μL of 10 mg/ml in 1% acetonitrile aqueous solution, 1% indicator bacteria, read-out: Diameter of inhibition zone. As for the experimental part: as §1
A further test deals with Escherichia coli DH5α. To be noted: 150 μL of 10 mg/ml in 1% acetonitrile aqueous solution, 1% indicator bacteria, read-out: Diameter of inhibition zone. As for the experimental part:
as §1

The subject of test [12] is Salmonella typhimurium CMCC50015. The conditions noted are these: Salmonella enterica, 150 μL of 10 mg/ml in 1% acetonitrile aqueous solution, 1% indicator bacteria, read-out: Diameter of inhibition zone. As for the experimental part: as §1
Test [13] concerns Salmonella paratyphi B CMCC50094. To be noted: Salmonella enterica, 150 μL of 10 mg/ml in 1% acetonitrile aqueous solution, 1% indicator bacteria, read-out: Diameter of inhibition zone. The method, then: as §1

`O=C(O)C(O)Cc1c[nH]c2ccccc12` (centres unmarked) [indole-3-lactic acid, Indole-3-lactic acid]: the zone of inhibition at 10000 µg/mL in test [1] was 13.4 ± 0.45 mm; with Bacillus subtilis BAS2, 15.67 ± 0.01 mm; in the test on Staphylococcus warneri it was 18.76 ± 0.06 mm; in test [2], 13.6 ± 0.23 mm; in the test with Staphylococcus simulans it was 13.4 ± 0.25 mm; in test [3], 15 ± 0.55 mm. The zone of inhibition at 10000 µg/mL in test [4] came to 13.06 ± 0.08 mm; in test [5] it was 13.4 ± 0.25 mm; in [6], 16.4 ± 0.27 mm; in test [7], 12.8 ± 0.17 mm; in test [8], 15.06 ± 0.08 mm; in test [9], 19.1 ± 0.76 mm. In addition, the zone of inhibition at 10000 µg/mL in [10] turned out to be 10.66 ± 0.08 mm; in [11] it was 10.95 ± 0.07 mm; in the test with Escherichia coli DH5α, 12.5 ± 0.17 mm; in [12], 12.7 ± 0.18 mm; in test [13] it was 13.2 ± 0.21 mm.

What is called zone of inhibition is the extent of the growth-free halo in a diffusion test.
